Our source for the inhibition values is patent publication US11572590B2, “Methods for evaluating tumor cell spheroids using 3D microfluidic cell culture device” (Dana-Farber Cancer Institute, Inc., priority 2017, dated 2023).

Where two headings read alike, the source gives them in different places.

Common to all, as to assay: SelectScreen Kinase Profiling, single point inhibition and IC50 for off-target kinases
Holding throughout (assay type): biochemical

Assay [1] addresses off-target kinases (Homo sapiens, UniProt Q7KZI7). The conditions noted are these: MARK2, ATP Km app, ZLYTE.
The target in assay [2] is off-target kinases (Homo sapiens, UniProt Q9HC98). The conditions noted are these: NEK6, ZLYTE, ATP Km app.
Assay [3] addresses T1, off-target kinases (Homo sapiens, UniProt Q12866).
T1 sequence (Q12866 21-999): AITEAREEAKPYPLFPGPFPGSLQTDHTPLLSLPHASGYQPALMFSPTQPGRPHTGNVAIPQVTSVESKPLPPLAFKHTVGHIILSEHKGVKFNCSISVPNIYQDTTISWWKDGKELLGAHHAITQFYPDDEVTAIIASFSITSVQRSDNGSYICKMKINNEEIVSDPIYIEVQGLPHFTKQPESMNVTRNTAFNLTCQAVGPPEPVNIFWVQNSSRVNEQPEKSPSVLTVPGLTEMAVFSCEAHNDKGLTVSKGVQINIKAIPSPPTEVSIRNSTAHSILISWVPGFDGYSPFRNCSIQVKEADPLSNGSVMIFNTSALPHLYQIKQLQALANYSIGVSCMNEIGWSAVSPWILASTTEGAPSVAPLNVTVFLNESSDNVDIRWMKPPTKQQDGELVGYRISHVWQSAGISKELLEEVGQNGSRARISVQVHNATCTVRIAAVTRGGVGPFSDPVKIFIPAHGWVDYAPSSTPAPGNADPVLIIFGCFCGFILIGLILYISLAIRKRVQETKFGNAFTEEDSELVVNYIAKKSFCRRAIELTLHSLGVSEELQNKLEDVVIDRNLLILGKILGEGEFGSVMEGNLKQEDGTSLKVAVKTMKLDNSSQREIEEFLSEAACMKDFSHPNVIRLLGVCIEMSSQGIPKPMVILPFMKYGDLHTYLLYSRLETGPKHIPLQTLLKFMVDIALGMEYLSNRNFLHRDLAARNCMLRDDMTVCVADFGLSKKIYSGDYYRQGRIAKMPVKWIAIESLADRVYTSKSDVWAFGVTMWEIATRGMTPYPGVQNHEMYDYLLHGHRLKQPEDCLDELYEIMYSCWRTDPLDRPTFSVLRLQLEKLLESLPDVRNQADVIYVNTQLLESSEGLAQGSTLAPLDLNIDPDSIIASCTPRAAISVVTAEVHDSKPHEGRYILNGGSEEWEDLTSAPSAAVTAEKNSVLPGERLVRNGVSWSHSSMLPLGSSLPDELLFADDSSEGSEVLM
To be noted: MERTK (cMER), ZLYTE, ATP Km app.

The target in assay [4] is T2, off-target kinases (Homo sapiens, UniProt O60285).
T2 sequence (O60285 1-661): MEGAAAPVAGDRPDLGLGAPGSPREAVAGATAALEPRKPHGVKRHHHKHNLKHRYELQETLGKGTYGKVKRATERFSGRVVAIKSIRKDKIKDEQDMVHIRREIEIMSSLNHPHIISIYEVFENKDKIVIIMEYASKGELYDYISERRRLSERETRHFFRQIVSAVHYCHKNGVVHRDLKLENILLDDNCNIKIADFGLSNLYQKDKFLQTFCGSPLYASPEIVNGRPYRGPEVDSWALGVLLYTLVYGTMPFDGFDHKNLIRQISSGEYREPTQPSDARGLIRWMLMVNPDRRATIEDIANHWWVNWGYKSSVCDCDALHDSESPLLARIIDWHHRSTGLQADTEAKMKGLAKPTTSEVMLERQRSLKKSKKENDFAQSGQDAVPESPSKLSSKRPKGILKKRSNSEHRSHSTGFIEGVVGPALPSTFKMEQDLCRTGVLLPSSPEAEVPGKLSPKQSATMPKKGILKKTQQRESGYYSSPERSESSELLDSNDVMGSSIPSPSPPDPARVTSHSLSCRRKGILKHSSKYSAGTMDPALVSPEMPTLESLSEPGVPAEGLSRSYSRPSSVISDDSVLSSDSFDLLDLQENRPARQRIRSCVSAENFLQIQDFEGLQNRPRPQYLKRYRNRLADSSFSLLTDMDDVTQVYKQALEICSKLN
To be noted: NUAK1 (ARK5), ATP Km app, Adapta.

Chain of off-target kinases (Homo sapiens, UniProt Q7KZI7) (Q7KZI7 whole entry): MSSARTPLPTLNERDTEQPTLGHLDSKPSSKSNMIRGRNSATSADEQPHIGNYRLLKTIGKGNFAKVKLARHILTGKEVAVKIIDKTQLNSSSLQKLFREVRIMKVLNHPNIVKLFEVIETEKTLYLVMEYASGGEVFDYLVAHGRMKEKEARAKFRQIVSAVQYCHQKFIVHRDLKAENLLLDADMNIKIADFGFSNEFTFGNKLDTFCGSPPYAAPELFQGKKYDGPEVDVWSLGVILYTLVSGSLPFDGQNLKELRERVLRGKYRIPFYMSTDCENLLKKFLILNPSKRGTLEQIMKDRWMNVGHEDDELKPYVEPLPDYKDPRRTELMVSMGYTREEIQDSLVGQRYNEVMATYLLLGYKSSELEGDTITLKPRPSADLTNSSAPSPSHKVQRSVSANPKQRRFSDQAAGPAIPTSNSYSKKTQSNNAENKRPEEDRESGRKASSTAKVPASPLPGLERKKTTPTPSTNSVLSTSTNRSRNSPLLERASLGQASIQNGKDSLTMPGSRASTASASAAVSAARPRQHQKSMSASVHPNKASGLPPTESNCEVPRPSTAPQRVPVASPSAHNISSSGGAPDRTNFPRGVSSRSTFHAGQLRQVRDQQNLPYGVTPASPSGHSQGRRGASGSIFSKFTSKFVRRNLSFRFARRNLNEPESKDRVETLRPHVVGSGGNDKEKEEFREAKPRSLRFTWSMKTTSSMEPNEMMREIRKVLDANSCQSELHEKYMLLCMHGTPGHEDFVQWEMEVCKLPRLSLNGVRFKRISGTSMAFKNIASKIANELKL
Chain of off-target kinases (Homo sapiens, UniProt Q9HC98) (Q9HC98 whole entry): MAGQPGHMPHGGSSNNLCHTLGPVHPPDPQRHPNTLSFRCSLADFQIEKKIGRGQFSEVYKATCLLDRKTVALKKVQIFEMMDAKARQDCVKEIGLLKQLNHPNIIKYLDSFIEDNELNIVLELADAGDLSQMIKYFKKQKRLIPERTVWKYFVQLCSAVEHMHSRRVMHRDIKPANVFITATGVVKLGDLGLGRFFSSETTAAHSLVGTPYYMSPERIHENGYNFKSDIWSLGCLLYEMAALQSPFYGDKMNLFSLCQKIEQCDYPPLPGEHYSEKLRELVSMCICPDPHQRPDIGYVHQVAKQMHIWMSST

The inhibition is how much of the control response was suppressed. Regarding `N#Cc1cc(-c2ncnc(Nc3ccc(N4CCN(C5COC5)CC4)cc3)n2)ccc1OC1CCOCC1` [Compound 1, 5-(4-((4-(4-(oxetan-3-yl)piperazin-1-yl)phenyl)amino)-1,3,5-triazin-2-yl)-2-((tetrahydro-2H-pyran-4-yl)oxy)benzonitrile], the inhibition turned out to be 86% in assay [1] (read-out: % Inhibition 1); 82% in assay [1] (read-out: % Inhibition 2); 84% in assay [1] (read-out: % Inhibition Avg); 12% in assay [2] (read-out: % Inhibition 1); 6% in assay [2] (read-out: % Inhibition 2); 9% in assay [2] (read-out: % Inhibition Avg). Also, the inhibition was 27% in assay [3] (read-out: % Inhibition 1); 22% in assay [3] (read-out: % Inhibition 2); 24% in assay [3] (read-out: % Inhibition Avg); 83% in assay [4] (read-out: % Inhibition 1); 83% in assay [4] (read-out: % Inhibition 2); 83% in assay [4] (read-out: % Inhibition Avg).
